Values quoted from earlier work, collected in US20250268950A1, “PRENATAL SUPPLEMENT” (Arizona Board of Regents on Behalf of Arizona State …, priority 2021, published 2025).
Read-outs that look alike come from different tables or passages of the source.

How the values were obtained:
[1] = for blood niacin lower than healthy non-pregnant controls: 20 mg/day, 563 US women

For `Nc1nc2ncc(CNc3ccc(C(=O)N[C@@H](CCC(=O)O)C(=O)O)cc3)nc2c(=O)[nH]1` [Folate], the “serum folate levels at postpartum” value ([1]; 355 mcg plus iron supplement, Scotland) is listed as “sufficient to maintain median serum folate levels at postpartum that were equivalent to that of healthy non-pregnant women”.
In the case of `CC1=C(C/C=C(\C)CCC[C@H](C)CCC[C@H](C)CCCC(C)C)C(=O)c2ccccc2C1=O` [phylloquinone], the “infant plasma vitamin K as % of formula-fed infants” value ([1]; lactating mothers 5 mg/day, infants 1 mg intramuscularly at birth) is listed as 50%.
For `[Zn]` [Zinc], the “reduction in chance of infant impetigo” value (infants; 30 mg/day) is given as 54% and the “preterm birth, RR” value (infants; meta-analysis of 16 randomized, controlled trials, mostly 20-30 mg) is given as 0.86.
For `Cc1ncc(C[n+]2csc(CCO)c2C)c(N)n1` [Thiamine], the “effect on glucose tolerance and intra-uterine growth” value (pregnant women; supplementation in pregnant women) is given as “improves their glucose tolerance, and stimulates intra-uterine growth” and the “thiamine levels lower than non-pregnant women” value ([1]; multi-vitamin containing 3 mg, 563 pregnant women) is given as “approximately 31%”.
In the case of `CC/C=C\C/C=C\C/C=C\C/C=C\C/C=C\C/C=C\CCC(=O)O` [DHA, Docosahexaenoic acid], the “increase of RBC DHA” value ([1]; 300 mg/day (controls decreased 10%)) is listed as 7% and the “increase of RBC DHA” value ([1]; 600 g/day group (so in the source)) is listed as 21%.
In the case of `CC1=C(/C=C/C(C)=C/C=C/C(C)=C/C=C/C=C(C)/C=C/C=C(C)/C=C/C2=C(C)CCCC2(C)C)C(C)(C)CCC1` [beta-carotene], the “benefit on night blindness compared with vitamin A” value (pregnant women; Nepal) is given as “about half as much benefit” and the “risk of anemia, RR” value (pregnant women; meta-analysis of 8 studies, supplementation) is given as 0.81.
In the case of `C[Se]CC[C@H](N)C(=O)O` [selenome-thionine, selenomethionine], the “preeclampsia or preterm birth vs placebo” value (pregnant women; 100 i.g/day, randomized trial of 169 women) is given as “no significant differences were seen for either preeclampsia or preterm birth”.
In the case of `[Se]` [Selenium], the “reduction of odds of preeclampsia or PIH” value (pregnant women; 60 i.g/day, 230 women in the UK) is listed as 65%, the pregnancy-induced hypertension (pregnant women; 100 i.g during last 6-8 weeks, women at risk (vs. 23%)) is listed as 8% and the gestational edema (pregnant women; 100 i.g during last 6-8 weeks, women at risk (vs. 33%)) is listed as 15%. For the same molecule, the postpartum depression (pregnant women; 100 i.g/day) was “treat postpartum depression”, the “existing gestational edema cured” value (pregnant women; 100 i.g, 26 cases (1 out of 13 with placebo)) was 88% and the “glucose, insulin, CRP, oxidative stress” value (pregnant women; 200 i.g/day for 6 weeks, 70 women with gestational diabetes) was “significant improvements in fasting glucose, serum insulin, C-reactive protein, and oxidative stress”. The “rate of permanent hypothyroidism” value (pregnant women; 200 i.g/day, women at high risk (vs. 20%)) was 12% and the “rate of postpartum thyroid deficiency” value (pregnant women; 200 i.g/day, women at high risk (vs. 49%)) was 29%.
In the case of Cobalamin [Vitamin B12], the “levels lower at end of pregnancy vs healthy non-pregnant controls” value ([1]; 12 mcg/day, US) is listed as 38%, the “maternal and infant B12 levels” value ([1]; 50 mcg/day during pregnancy and early lactation, India) is listed as “significant increases in maternal B12 levels in blood and breastmilk, and infant levels of B12” and the “vitamin B12 levels during pregnancy” value ([1]; approximately 3× the RDA (diet 6 mcg + supplements 2.6 mcg), 26 women) is listed as “enough to stabilize vitamin B12 levels during pregnancy”. For the same molecule, the “decrease in serum B12 by third trimester vs first” value ([1]; total consumption of 2× the RDA) was 30%.
In the case of `O=C(O)CCCC[C@@H]1SC[C@@H]2NC(=O)N[C@@H]21` [Biotin], the biotin levels ([1]; 30 mcg/day supplemental) is listed as “sufficient to slightly increase levels of biotin above that of healthy controls” and the “treatment of biotin deficiency” value ([1]; 300 mcg/day for two weeks) is listed as “sufficient to treat the deficiency”.
In the case of magnesium gluconate, the “rate of pregnancy-induced hypertension” value (pregnant women; 184 mg/day) is listed as “substantially reduced the rate of pregnancy-induced hypertension”.
In the case of calcium pantothenate, the “blood levels of pantothenic acid” value ([1]; 10 mg/day) is listed as “slightly higher blood levels of pantothenic acid compared to non-pregnant controls”, the “bound pantothenic acid as % of levels in controls” value ([1]; 60 mg from 4.5 months gestation, at 7.5 months) is listed as 59% and the “free pantothenic acid vs controls, fold higher” value ([1]; 60 mg from 4.5 months gestation, at 7.5 months and at term) is listed as 2. The “bound pantothenic acid as % of levels in controls” value ([1]; 60 mg from 4.5 months gestation, at term) was 104%.
For `CC(=O)[O-].CC(=O)[O-].[Zn+2]` [zinc acetate], the “benefit of zinc form” value (infants; two studies) is listed as “not beneficial”.
For `O=C(O)c1cccnc1` [Niacin], the “blood niacin lower than healthy non-pregnant controls” value ([1]; first trimester) is given as 29%, the “blood niacin lower than healthy non-pregnant controls” value ([1]; second trimester) is given as 35% and the “blood niacin lower than healthy non-pregnant controls” value ([1]; third trimester) is given as 38%.
In the case of `Cc1cc2nc3c(=O)[nH]c(=O)nc-3n(C[C@H](O)[C@H](O)[C@H](O)CO)c2cc1C` [Riboflavin], the “cases of severe preeclampsia” value (pregnant women; 15 mg/day, Venezuela) is listed as “significant decrease in the number of cases of severe preeclampsia”.
In the case of `[Fe]` [Iron], the “subjects in whom iron deficiency anemia was reduced” value (pregnant women; 60 mg 3×/day (180 mg total), 12 participants with IDA) is given as 75%, the “reduction of iron-deficiency anemia at term” value (pregnant women; meta-analysis, 6 trials, 1088 women) is given as 67% and the “reduction of iron deficiency at term” value (pregnant women; meta-analysis, 7 trials, 1256 women) is given as 57%. For the same molecule, the “reduction of maternal anemia at term” value (pregnant women; meta-analysis, 14 trials, 2199 women, mostly 30-200 mg/day) was 70% and the megaloblastic anemia (pregnant women; only iron (11% unsupplemented)) was 6%.
